In patent US8048889B2, “3,4-disubstituted coumarin and quinolone compounds” (XTL Biopharmaceuticals Ltd., priority 2005, dated 2011):

Columns and labels:
[1] = tested on: HCV Replicon (HCV RNA in Huh-Luc-Neo cells); assay: HCV Replicon RNA Assay (Taqman); type: cell-based, Hepatitis C virus; settings: Hepatitis C virus, compound added day 0 and day 1, no unit in table, hit threshold in μM
Protocol: (§1) The identification of inhibitors of HCV replication and/or proliferation has been facilitated by the development of a cell based system to study HCV replication and assay for HCV inhibitors. Inhibition of HCV replication may be performed using the HCV Replicon Assay developed in the laboratories of Bartenschlager (Lohman et al, Science 285, 110-113, 1999) and Rice (Blight et al, Science 290, 1972-1974, 2000). The assay is performed using the Huh-Luc-Neo cell line (Lohman et al, Science 285, 110-113, 1999). Huh-Luc-Neo cells are a human hepatoma cell line (Huh-7) stably expressing a bi-cistronic subgenomic replicon containing the HCV IRES in which the structural proteins of HCV had been deleted and replaced by a construct containing sequences coding for the firefly luciferase reporter gene, the neomycin selectable marker and the EMCV IRES to direct expression of a truncated HCV genome expressing the […] NS3, NS4A, NS4B, NS5A, and NS5B. HCV targets through which inhibitors could act to inhibit replication include the NS3 protease, the helicase/ATPase, NS5A, the NS5B- RNA dependent RNA polymerase, and the HCV IRES.
(§2) Expression of HCV IRES driven luciferase reporter activity and HCV RNA is measured to obtain indirect and direct measures of replication of HCV RNA respectively. Inhibitors of HCV replication and/or proliferation are determined by initially identifying molecules that inhibit expression of the HCV IRES driven luciferase reporter in this HCV Replicon Luciferase Assay. Cell viability assays and control cell based luciferase assays are then run on hits identified in the HCV Replicon Luciferase Assay to eliminate cytoxic compounds and non-specific compounds which act by inhibiting the luciferase enzyme.
(§3) Day 0, Cell Seeding and Compound Treatment: Huh-Luc-Neo Cells are seeded at 25,000/well in an opaque-walled 96 plate with Growth Medium (DMEM phenol red free+PS+2 mM glutamine; 100 μl/well). The compounds to be tested are added to the experimental wells (10 μl/well at 10× assay concentration) and the cells are then incubated (5% CO2, 37° C.).
Day 1, Media Change and Compound Treatment: 24 hours after the initial compound treatment the cell culture media is aspirated from the wells and fresh Growth Medium is added (DMEM phenol red free+PS+2 mM glutamine; 100 μl/well). The compounds to be tested are then added to the appropriate experimental wells (10 μl/well at 10 × assay concentration) and the cells are then incubated (5% CO2, 37° C.) for an additional 24 hrs.
Day 2, RNA Isolation and cDNA Synthesis: The cells are washed with 1× Phosphate Buffered Saline (PBS) once.
(§4) Day 3, Quantitative PCR Based Measurement of HCV RNA (Taqman Assay): Quantitative PCR analysis to measure HCV RNA expression from cDNA synthesized on Day 2 is performed using the ABI 9700 HT Sequence Detection System (Applied Biosystems) as previously described (Lohman et al, Science 285, 110-113, 1999). The data is analyzed and IC50s are determined using GraphPad Prism 4 software. Hits validated in the Replicon RNA Assay have IC50s<8.0 μM and show <30% inhibition of Cell Viability at a compound concentration of 50 μM (Cell Titer Glow Assay, cell viability assay conditions identical to HCV Replicon RNA Assay conditions).

Huh-Luc-Neo cells = assay: CellTiter-Glo Cell Viability Assay; type: cell-based, human; settings: for Toxicity % Inhibition at 50 uM (2 doses): inhibition of cell viability at 50 uM, conditions as in Replicon RNA Assay; for Toxicity % Inhibition at 100 um (1 dose): inhibition of cell viability at 100 um, conditions as in Replicon Luciferase Assay (48 h)
Protocol: (§5) Day 2 Reagent Preparation and Luciferase Assay: The Bright-Glo Luciferase Assay Buffer (Promega) is thawed and equilibrated to room temperature prior to use. The lyophilized Bright-Glo Luciferase Assay Substrate is equilibrated to room temperature prior to use. 10 ml of Bright-Glo Luciferase Assay Buffer is transferred to 1 vial of Bright-Glo Luciferase Assay Substrate bottle and mixed by gently with a Vortex. 100 ul of Bright-Glo Luciferase Assay reagent (Bright-Glo Luciferase Assay Buffer+Bright-Glo Luciferase Assay Substrate Mixture) is added to each well. The well contents are mixed for 5 min. on an orbital shaker at room temperature to induce cell lysis and the luminescence is then measured using a luminometer. The data is analyzed and IC50s are determined using GraphPad Prism 4 software. Hits validated in the Replicon Luciferase assay have IC50s<8.0 μM and show<30% inhibition of Cell Viability at a compound concentration of 100 μM (Cell Titer Glow Assay, cell viability assay conditions identical to HCV Replicon Luciferase Assay conditions).
as §4
as §3, with “ul/well).” for “μl/well).”, “tested for inhibition of cell viability” for “tested”, “C.) for 48 h.” for “C.).”
Day 2, Reagent Preparation and Assay: The CellTiter-Glo Buffer is thawed and equilibrated to room temperature prior to use. The lyophilized CellTiter-Glo Substrate is equilibrated to room temperature prior to use. 10 ml of CeliTiter-Glo Buffer is transferred to 1 vial of CellTiter-Glo Substrate and mixed by gently with a Vortex. 100 μl of CellTiter-Glo Assay reagent (CellTiter-Glo Buffer+CellTiter-Glo Substrate Mixture) is added to each well. The well contents are mixed for 5 min. on an orbital shaker at room temperature to induce cell lysis and the luminescence is then measured using a luminometer.

[2] = tested on: HCV Replicon (HCV IRES driven luciferase reporter in Huh-Luc-Neo cells); assay: HCV Replicon Luciferase Assay; type: cell-based; settings: Hepatitis C virus, 48 h, no unit in table, hit threshold in μM
Protocol: as §1, §2
as §3, with “0” for “0,”, “C.) for 48 h.” for “C.).”
as §5

SMILES | IC50 [1] [µM] | Toxicity % Inhibition at 50 uM (2 doses) (Huh-Luc-Neo cells) [%] | Toxicity % Inhibition at 100 um (1 dose) (Huh-Luc-Neo cells) [%] | IC50 [2] [µM]
COc1ccc(-c2c(OCc3cccc(C(F)(F)F)c3)c3ccccc3oc2=O)cc1 [VQ_36312] | 0.89 | 40.8 | 5.0 | 3.06
COC(=O)CNCc1c(Nc2ccc(C)cc2)c2ccccc2oc1=O [VQ_36341] | 0.4 | 31.2 | 14.6 | 0.28
Cc1ccc(Nc2c(CNc3ncccn3)c(=O)oc3ccccc23)cc1 [VQ_36343] | 0.16 | 37.9 | 21.1 | 0.13
COc1ccc(Nc2c(/C=N/C3CCCCC3)c(=O)oc3ccccc23)cc1 [VQ_36467] | 0.46 | 13.9 | 22.8 | 51.1
CCCCCC/N=C/c1c(Nc2ccc(OC)cc2)c2ccccc2oc1=O [VQ_36468] | 0.71 | 16.3 | 40.7 | 43.3
COc1ccc(Nc2c(/C=N/c3nc4ccccc4s3)c(=O)oc3ccccc23)cc1 [VQ_36469] | 4.16 | 3.3 | 14.7 | 53.6
COc1ccc(Nc2c(/C=N/c3ncccn3)c(=O)oc3ccccc23)cc1 [VQ_36470] | 4.08 | −2.7 | 12.5 | 59.9
COc1ccc(Nc2c(/C=N/c3ccc(Cl)cc3)c(=O)oc3ccccc23)cc1 [VQ_36471] | 1.78 | 15.2 | 9.8 | 0.04
COc1ccc(Nc2c(/C=N/c3ccc(C)cc3)c(=O)oc3ccccc23)cc1 [VQ_36472] | 0.85 | 6.5 | 5.9 | 0.03
COc1ccc(/N=C/c2c(Nc3ccc(OC)cc3)c3ccccc3oc2=O)cc1 [VQ_36473] | 1.71 | 10.7 | 4.3 | 0.02
COc1ccc(Nc2c(/C=N/c3cc(Cl)cc(Cl)c3)c(=O)oc3ccccc23)cc1 [VQ_36594] | > 30 | 13.7 | 9.1 | 0.74
